Assay [1] has as its target T1, Short transient receptor potential channel 4 (Mus musculus, UniProt Q9QUQ5).
T1 sequence (Q9QUQ5 whole entry): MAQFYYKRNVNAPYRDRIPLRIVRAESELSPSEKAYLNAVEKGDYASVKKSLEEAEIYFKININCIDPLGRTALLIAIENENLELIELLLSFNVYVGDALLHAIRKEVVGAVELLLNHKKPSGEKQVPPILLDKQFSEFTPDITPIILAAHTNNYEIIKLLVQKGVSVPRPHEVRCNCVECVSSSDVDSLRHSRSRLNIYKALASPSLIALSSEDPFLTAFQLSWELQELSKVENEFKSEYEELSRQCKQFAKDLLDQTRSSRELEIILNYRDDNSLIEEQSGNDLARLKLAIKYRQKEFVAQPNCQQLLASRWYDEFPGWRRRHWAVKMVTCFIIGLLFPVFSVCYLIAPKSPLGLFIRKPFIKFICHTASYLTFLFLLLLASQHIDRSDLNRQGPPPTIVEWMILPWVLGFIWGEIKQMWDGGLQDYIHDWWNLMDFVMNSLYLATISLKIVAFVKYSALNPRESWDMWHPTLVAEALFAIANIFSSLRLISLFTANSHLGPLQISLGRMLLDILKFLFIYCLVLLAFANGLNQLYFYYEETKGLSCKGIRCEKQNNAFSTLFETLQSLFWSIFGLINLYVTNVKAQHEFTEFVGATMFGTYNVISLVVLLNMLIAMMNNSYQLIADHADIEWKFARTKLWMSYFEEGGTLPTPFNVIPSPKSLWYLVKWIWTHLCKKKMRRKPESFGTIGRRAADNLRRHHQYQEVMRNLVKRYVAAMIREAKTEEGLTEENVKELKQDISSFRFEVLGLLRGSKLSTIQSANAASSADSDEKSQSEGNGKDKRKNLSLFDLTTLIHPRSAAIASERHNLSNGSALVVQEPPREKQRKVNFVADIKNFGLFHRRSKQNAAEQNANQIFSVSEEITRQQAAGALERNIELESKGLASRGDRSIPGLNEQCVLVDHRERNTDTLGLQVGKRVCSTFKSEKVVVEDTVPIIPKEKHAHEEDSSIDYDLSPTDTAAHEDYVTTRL
The experiment in a line: mouse TRPC4 channel inhibitors, dose response, cell-based, HEK293 TRPC4/mu-opioid, Fluo-4 calcium (AID 434942).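 Also: potency of inhibitors blocking the TRPC4 calcium response.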 The format is functional.

The target of assay [2] is T1, Short transient receptor potential channel 4. The experiment in a line: mouse TRPC4 channel activators, dose response, cell-based, HEK293 TRPC4/mu-opioid, Fluo-4 calcium (AID 434937). The format is functional.
Assay [3] concerns the target T2, Heat shock factor protein 1 (Mus musculus, UniProt P38532).
T2 sequence (P38532 whole entry): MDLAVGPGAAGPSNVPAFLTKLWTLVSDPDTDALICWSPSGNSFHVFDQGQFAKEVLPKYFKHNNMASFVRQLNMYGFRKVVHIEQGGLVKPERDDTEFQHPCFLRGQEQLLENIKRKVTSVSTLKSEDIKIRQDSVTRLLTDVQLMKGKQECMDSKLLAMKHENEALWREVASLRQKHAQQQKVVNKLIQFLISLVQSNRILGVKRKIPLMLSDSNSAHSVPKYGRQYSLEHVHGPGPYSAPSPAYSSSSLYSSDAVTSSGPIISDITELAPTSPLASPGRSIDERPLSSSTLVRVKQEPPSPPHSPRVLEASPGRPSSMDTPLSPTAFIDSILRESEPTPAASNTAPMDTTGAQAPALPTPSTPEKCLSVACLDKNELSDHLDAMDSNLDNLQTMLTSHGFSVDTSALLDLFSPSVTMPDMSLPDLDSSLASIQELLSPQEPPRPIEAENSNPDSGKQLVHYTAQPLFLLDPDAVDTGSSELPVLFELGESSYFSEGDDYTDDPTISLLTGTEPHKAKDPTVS
The assay is described as follows: inhibition of MG132-induced HSE-luciferase signal, confirmation, cell-based, NIH3T3, luminescence, dose retest (AID 2382).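 Also: NIH3T3 fibroblasts with HSF1-driven luciferase reporter stressed by proteasome inhibitor MG132; luminescence from HSF1-driven luciferase expression after 8 hours of MG132 stress.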 The format is functional.

The target in assay [4] is T3, Endoribonuclease toxin MazF (Escherichia coli K-12, UniProt P0AE70).
T3 sequence (P0AE70 whole entry): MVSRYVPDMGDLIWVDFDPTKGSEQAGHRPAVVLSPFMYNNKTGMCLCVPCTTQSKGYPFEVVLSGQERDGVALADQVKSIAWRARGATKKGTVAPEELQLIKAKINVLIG
The assay is described as follows: fluorescent RNA oligo signal without MazF, dose response, counter-screen for MazEF activator project, biochemical, fluorescence, single-stranded RNase substrate (AID 588502). The format is functional. A general note: Counterscreens check selectivity or assay interference.

Assay [5] concerns the target T3, Endoribonuclease toxin MazF. The experiment in a line: MazF toxin RNase activators, dose response, biochemical, fluorescence, single-stranded RNA substrate, uHTS hits (AID 588481). The assay is classed as functional.
Assay [6] can be described thus: HEp-2 cell cytotoxicity, dose response, cytotoxicity control for RSV inhibitor project, HTS (AID 2410). The assay is classed as functional. The settings on record: human respiratory syncytial virus.
Assay [7] deals with Intestinal-type alkaline phosphatase (Homo sapiens, UniProt P09923). The experiment in a line: inhibition of human intestinal alkaline phosphatase – biochemical, dose response (AID 488876). The assay is classed as functional.
The target in assay [8] is Intestinal-type alkaline phosphatase (Mus musculus, UniProt P24822). The experiment in a line: PubChem AID 488785. The assay is classed as functional.
In assay [9] the target is T4, Alkaline phosphatase, tissue-nonspecific isozyme (Homo sapiens, UniProt P05186).
T4 sequence (P05186 whole entry): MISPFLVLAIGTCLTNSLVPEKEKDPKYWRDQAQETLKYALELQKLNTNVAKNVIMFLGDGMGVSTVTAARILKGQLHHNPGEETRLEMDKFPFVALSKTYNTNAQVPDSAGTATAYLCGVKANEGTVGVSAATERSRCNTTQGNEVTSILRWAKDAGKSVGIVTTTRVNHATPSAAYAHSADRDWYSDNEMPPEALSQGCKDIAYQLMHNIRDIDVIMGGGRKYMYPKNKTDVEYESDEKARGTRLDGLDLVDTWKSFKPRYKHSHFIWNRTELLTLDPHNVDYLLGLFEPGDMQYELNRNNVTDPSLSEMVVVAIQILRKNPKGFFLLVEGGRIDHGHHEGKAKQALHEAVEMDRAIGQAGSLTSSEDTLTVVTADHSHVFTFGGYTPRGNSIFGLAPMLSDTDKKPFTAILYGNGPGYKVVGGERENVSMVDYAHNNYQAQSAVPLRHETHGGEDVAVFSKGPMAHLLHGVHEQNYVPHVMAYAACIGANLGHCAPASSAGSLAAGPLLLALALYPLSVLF
The experiment in a line: TNAP enzyme inhibition by screening hits, dose response, selectivity assay for mouse IAP inhibitor project, biochemical, human TNAP, uHTS hits (AID 488906). The assay is classed as functional.

A short description of assay [10]: cells.
For assay [11], the target named is T5, Small ubiquitin-related modifier 1 (Homo sapiens, UniProt P63165). The experiment in a line: inhibitors of SUMO1 peptide binding, dose response, biochemical, fluorescence polarization, uHTS hits (AID 624382). The format is functional. The conditions noted are these: read-out: IC50_Mean. (Polarisation of emitted light reports the rotation of a fluorescent probe.)

Assay [12] concerns the target T5, Small ubiquitin-related modifier 1. The experiment in a line: inhibitors of SUMO1 partner interactions, dose response, biochemical, FRET (AID 624383). The assay is classed as functional. The conditions noted are these: read-out: IC50_Mean.
Assay [13] can be described thus: AlphaScreen signal interference compounds, dose response, artefact control for ARNT-TACC3 interaction inhibitor project, biochemical, luminescence, cherry-pick (AID 651705).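 Also: AlphaScreen bead proximity signal that flags compounds interfering with the detection technology; potency reflects signal decrease which marks the compound as an assay artifact.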 The assay is classed as functional. A general note: In Alpha technology, singlet oxygen from a donor bead excites a nearby acceptor bead.
Assay [14] is described as follows: Vero E6 cell cytotoxicity, dose response, cytotoxicity control for non-replicating M. tuberculosis project, secondary assay (AID 492998). The format is functional, VeroE6. The settings on record: Vero C1008.
Assay [15] can be described thus: cells. The format is functional.
Assay [16] deals with T6, Methionyl-tRNA synthetase, putative (Trypanosoma brucei brucei, UniProt Q38C91).
T6 sequence (Q38C91 whole entry): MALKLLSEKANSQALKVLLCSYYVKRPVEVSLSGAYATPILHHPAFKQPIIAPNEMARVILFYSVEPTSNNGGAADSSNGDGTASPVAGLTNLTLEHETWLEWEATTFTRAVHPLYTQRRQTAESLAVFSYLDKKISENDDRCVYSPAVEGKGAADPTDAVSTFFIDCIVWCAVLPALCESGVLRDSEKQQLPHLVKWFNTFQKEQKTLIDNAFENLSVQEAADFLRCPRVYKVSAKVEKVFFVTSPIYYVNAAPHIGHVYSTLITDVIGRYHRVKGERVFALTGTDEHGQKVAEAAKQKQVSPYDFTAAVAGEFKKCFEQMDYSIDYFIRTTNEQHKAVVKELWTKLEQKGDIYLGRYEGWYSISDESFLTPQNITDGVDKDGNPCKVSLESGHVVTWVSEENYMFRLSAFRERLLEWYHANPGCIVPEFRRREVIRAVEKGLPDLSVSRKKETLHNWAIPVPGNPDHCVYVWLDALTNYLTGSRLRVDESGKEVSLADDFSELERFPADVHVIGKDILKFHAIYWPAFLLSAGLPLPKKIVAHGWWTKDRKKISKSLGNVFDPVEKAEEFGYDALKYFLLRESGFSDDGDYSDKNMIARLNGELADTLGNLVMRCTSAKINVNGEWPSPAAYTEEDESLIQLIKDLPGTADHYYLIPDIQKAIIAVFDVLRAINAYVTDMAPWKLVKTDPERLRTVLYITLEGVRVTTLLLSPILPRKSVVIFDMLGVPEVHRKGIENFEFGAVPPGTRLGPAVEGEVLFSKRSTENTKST
The format is functional, Trypanosoma brucei brucei strain 927/4 GUTat10.1.

Assay [17] in a line: Counterscreen for inhibitors of Trypanosoma brucei methionyl tRNA synthetase (MetRS): Luminescence-based cell-based high throughput dose response assay to identify compounds that are cytotoxic to Jurkat human T lymphocyte cells. The assay is classed as functional.
In assay [18] the test system is INS1. The experiment in a line: beta cell apoptosis inhibitors, cytokine rescue, dose response, luminescence, retest (AID 449756).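 Also: cell death triggered by IL-1 beta plus TNF-alpha plus IFN-gamma mixture; protective hits raise ATP signal compared with cytokine alone wells.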 The format is functional, cell-based. The conditions noted are these: Rattus norvegicus.
In assay [19] the target is T7, Ubiquitin-conjugating enzyme E2 N (Homo sapiens, UniProt P61088).
T7 sequence (P61088 whole entry): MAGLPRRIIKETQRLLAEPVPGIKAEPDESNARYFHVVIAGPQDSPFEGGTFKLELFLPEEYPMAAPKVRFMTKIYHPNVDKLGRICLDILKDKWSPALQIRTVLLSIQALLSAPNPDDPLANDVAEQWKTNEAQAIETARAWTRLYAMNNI
The format is functional.

Assay [20] concerns the target T8, Bcl-2-related protein A1 (Mus musculus, UniProt Q07440).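 Also: confirmatory dose–response counterscreen on Bfl-1, used to check hits from a UBC13 polyubiquitin inhibitor campaign.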
T8 sequence (Q07440 whole entry): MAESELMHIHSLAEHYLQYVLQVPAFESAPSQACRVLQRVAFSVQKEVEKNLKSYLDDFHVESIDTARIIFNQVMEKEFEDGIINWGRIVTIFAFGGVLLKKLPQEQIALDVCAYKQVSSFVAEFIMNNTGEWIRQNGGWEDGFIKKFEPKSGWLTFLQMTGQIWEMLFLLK
The format is functional.

Assay [21] concerns the target T7, Ubiquitin-conjugating enzyme E2 N. The assay is classed as functional. The source holds these as a separate data set.
Assay [22] deals with T9, Probable nicotinate-nucleotide adenylyltransferase (Staphylococcus aureus (strain N315), UniProt P65502). The assay is classed as functional, Staphylococcus aureus subsp. aureus N315.
Assay [23] concerns the target T9, Probable nicotinate-nucleotide adenylyltransferase. The format is functional, Staphylococcus aureus subsp. aureus N315. The conditions noted are these: read-out: IC50_Mean.

The source made the active and inactive calls.

T5 sequence (P63165 whole entry): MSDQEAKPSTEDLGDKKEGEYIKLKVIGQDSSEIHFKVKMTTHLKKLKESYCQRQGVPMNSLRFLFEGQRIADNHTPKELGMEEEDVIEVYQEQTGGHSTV
T9 sequence (P65502 whole entry): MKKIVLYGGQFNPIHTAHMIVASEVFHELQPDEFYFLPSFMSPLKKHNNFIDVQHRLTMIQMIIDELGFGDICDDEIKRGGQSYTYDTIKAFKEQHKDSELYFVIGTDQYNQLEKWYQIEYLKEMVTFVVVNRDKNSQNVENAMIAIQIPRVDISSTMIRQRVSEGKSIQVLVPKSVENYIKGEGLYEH
Chain of Intestinal-type alkaline phosphatase (Mus musculus, UniProt P24822) (P24822 whole entry): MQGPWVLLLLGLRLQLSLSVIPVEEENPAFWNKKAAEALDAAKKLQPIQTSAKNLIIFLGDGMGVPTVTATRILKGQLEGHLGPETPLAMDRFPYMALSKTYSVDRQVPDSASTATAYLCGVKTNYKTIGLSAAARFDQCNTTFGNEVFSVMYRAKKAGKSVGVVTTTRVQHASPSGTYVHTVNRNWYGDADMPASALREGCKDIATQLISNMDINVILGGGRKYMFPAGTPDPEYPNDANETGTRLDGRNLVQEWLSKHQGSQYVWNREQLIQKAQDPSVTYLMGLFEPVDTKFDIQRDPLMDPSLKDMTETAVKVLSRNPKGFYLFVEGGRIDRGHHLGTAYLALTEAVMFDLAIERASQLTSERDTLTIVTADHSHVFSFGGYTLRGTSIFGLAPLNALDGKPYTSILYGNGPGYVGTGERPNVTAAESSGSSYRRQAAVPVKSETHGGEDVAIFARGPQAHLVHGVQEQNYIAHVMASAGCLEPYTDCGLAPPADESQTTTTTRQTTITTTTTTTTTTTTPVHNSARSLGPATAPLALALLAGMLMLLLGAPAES
Chain of Intestinal-type alkaline phosphatase (Homo sapiens, UniProt P09923) (P09923 whole entry): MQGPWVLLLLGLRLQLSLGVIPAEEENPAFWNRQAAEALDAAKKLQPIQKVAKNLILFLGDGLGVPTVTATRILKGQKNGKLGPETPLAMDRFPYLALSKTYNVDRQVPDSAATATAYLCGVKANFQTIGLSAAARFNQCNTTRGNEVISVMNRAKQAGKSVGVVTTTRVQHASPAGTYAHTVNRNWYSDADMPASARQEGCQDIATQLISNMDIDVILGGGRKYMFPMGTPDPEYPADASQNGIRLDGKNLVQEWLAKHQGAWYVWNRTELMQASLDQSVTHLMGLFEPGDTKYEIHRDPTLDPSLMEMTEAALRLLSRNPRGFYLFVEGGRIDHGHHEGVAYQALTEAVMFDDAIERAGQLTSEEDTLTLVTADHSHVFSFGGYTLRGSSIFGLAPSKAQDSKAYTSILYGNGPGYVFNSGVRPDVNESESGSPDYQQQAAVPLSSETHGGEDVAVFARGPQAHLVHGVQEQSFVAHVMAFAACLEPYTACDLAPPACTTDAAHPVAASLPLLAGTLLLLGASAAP

As for `COc1ccc(/C=C/C(=O)Nc2ccccc2C(=O)NCC(c2ccc(OC)cc2)N(C)C)cc1` (configuration not stated), the EC50 (usually the concentration at which the effect is half-maximal) in [1] was 0.188 µM (active); in [2], 0.421 µM (active); in [3] it was > 195 µM (not active).
With `O=c1[nH]cnc2scc(-c3ccc(-c4ccccc4)cc3)c12`, the EC50 in assay [4] and in [5] was > 99 µM (inactive) throughout.
As for `Cc1ccc(S(=O)(=O)N2CCC(C(=O)Nc3ccc(C(C)C)cc3)CC2)cc1`, in assay [6], the CC50 – broadly, the concentration that lowers cell viability or growth by half – is 13 µM (active). The IC50 in assay [7] was > 100 µM (inactive); in [8], 7.81 µM (active); in assay [9], > 100 µM (inactive); in [10] it was 40.7 µM (active).
With `Nc1nccnc1C(=O)OCC(=O)Nc1ccc2[nH]c(O)nc2c1`, the figures for the IC50 in [11] and in assay [12] were > 66.6 µM (inactive) and 11.9 µM (active), respectively.
Consider `O=C(Nc1nnc(-c2ccccc2Cl)o1)c1cccnc1`, for which the AC50 (commonly the midpoint of the concentration-response curve, whichever way the signal moves) in [13] is 91.9 µM (active). For the same compound, the CC50 in [14] was > 20 µM (active). In addition, the IC50 in assay [15] was 8.68 µM (active).
`COc1ccccc1NS(=O)(=O)c1cc(NC(=O)Nc2ccccc2)ccc1N1CCCCC1`: the values for the IC50 in assay [16] and in [17] were 19.7 µM (inactive) and 83.3 µM (inactive), respectively.
For `CCN1CCN(Cc2ccc(NC(=O)c3cc(NC(=O)c4cncc(-c5ccc(C#N)cc5)c4)cc(OC)c3)cc2C(F)(F)F)CC1`, in [3], the EC50 is > 195 µM (not active). Also, the AC50 in assay [18] is 8.2 µM (active). In addition, the IC50 in [19] was 10.9 µM (active); in assay [20], 8.76 µM (active); in [21], 6.69 µM (active).
On to `CC(C)C[C@@H](CNCC(=O)[C@H](CC(=O)O)NC(=O)c1nc[nH]c1C(=O)N[C@H](CN)CC(C)C)NC(=O)c1[nH]cnc1C(=O)N[C@@H](Cc1ccccc1)C(=O)O`, for which the IC50 is 50.1 µM (inactive) in assay [11], 5.92 µM (active) in [12], 12.4 µM (active) in [22] and 44 µM (active) in assay [23].
For `CCOc1ccccc1CNC(=O)CCNS(=O)(=O)c1ccc2nc(O)oc2c1`, the IC50 is > 100 µM (inactive) in [7], 2.65 µM (active) in [8] and 22.7 µM (active) in assay [9].
`C#CCN1c2ccccc2Sc2cccnc21`: the EC50 in assay [4] is 85.6 µM (inactive); in [5] it was > 99 µM (inactive).
For `NCCc1c[nH]cn1` [HISTAMINE], the AC50 in [13] was 106 µM (active).

These data come from ChEMBL document CHEMBL1201862, “PubChem BioAssay data set” (2004).
